# Source: paper PMC7532663, “Pharmacological inhibition of mTORC1 increases CCKBR-specific tumor uptake of radiolabeled minigastrin analogue [^177Lu]Lu-PP-F11N” (Theranostics, 2020)
# System: A431/CCKBR cells
# Assay: CellTiter 96 AQueous (MTS) proliferation assay
# Format: cell-based, human
# Conditions: not given
row,Compound,Proliferation [A570]
1,CC1=C(O)C(=O)[C@@H]2O[C@@H]2C1=O [Terreic acid],1.06
2,"OC[C@H]1O[C@@H](n2cnc3cc(Cl)c(Cl)cc32)[C@H](O)[C@@H]1O [5,6-dichloro-1-β-D-ribofuranosylben zimidazole]",0.99
3,"COCc1cc(O)c(O)c(O)c1-c1c(COC)cc(O)c(O)c1O [2,2',3,3',4,4'-Hexahydroxy-1,1'-biphenyl-6,6'-dimethanol dimethyl ether]",0.98
4,C/C(O)=C(\C#N)C(=O)Nc1cc(Br)ccc1Br [LFM-A13],0.93
5,O.O.O=c1c(O)c(-c2ccc(O)c(O)c2)oc2cc(O)cc(O)c12 [Quercetin·2H2O],1.03

# Same assay, conditions: 10 μM kinase inhibitor; MTS absorbance at 570 nm, reference 650 nm; mean of triplicate
row,Compound,Proliferation [A570]
1,CC(C)(C)c1cc(C=C(C#N)C#N)cc(C(C)(C)C)c1O [TYRPHOSTIN 9],0.62
2,CC(=O)c1c(O)c(C)c(O)c(Cc2c(O)c3c(c(C(=O)/C=C/c4ccccc4)c2O)OC(C)(C)C=C3)c1O [Rottle rin],0.64
3,O=c1c(-c2ccc(O)cc2)coc2cc(O)cc(O)c12 [Genistein],0.95
4,N#CC(=C(/N)Sc1ccccc1N)/C(C#N)=C(/N)Sc1ccccc1N [U-0126],0.87
5,N#CC(=Cc1ccc2[nH]ccc2c1)C(N)=C(C#N)C#N [AG-3 70],0.97
6,CN(C)c1ccc(/C=C2\C(=O)Nc3ccccc32)cc1 [SU 4312],0.97
7,O=c1c(-c2ccc(O)cc2)coc2cc(O)ccc12 [Daidzein],0.92
8,CC1CNCCN1S(=O)(=O)c1cccc2cnccc12.Cl.Cl (stereo not drawn) [H-7·2HCl],0.98
9,N#CC(C#N)=Cc1cc(O)c(O)c([N+](=O)[O-])c1 [TYRPHOSTIN AG 1288],0.97
10,COc1cc2ncc(-c3ccccc3)nc2cc1OC [AG-1296],0.94
11,Oc1c2ccccc2c2c3c(cccc13)N=N2 [SP 600125],0.77
12,CC(C)(C)c1cc(/C=C(\C#N)C(N)=S)cc(C(C)(C)C)c1O [AG-8 79],0.80
13,CN[C@@H]1C[C@H]2O[C@@](C)([C@@H]1OC)n1c3ccccc3c3c4c(c5c6ccccc6n2c5c31)C(=O)NC4 [Staurosporine],0.51
14,COc1cc(/C=C(\C#N)C(N)=O)cc(CSc2nc3ccccc3s2)c1O [AG-8 25],0.80
15,O=P(O)(O)C(O)c1ccc2ccccc2c1 (stereo not drawn) [Hydroxy-2-naphthalenylmethylphosp honic acid],1.00
16,N#C/C(=C\c1ccc(O)c(O)c1)C(=O)NCc1ccccc1 [AG-4 90],1.03
17,O=C1Cc2c([nH]c3ccc(Br)cc23)-c2ccccc2N1 [Kenpaullone],0.99
18,CN([C@@H](Cc1ccc(OS(=O)(=O)c2cccc3cnccc23)cc1)C(=O)N1CCN(c2ccccc2)CC1)S(=O)(=O)c1cccc2cnccc12 [KN-62],0.82
19,Nc1ncnc2c1c(I)cn2[C@@H]1O[C@H](CO)[C@@H](O)[C@H]1O [5-Iodotubericidin],1.15
20,CNCCNS(=O)(=O)c1cccc2cnccc12 [H-8],0.99
21,Cc1cc2ncc(-c3ccccc3)nc2cc1C [TYRPHOSTIN AG 1295],0.94
22,N#CC(C#N)=Cc1ccc([N+](=O)[O-])c(O)c1 [AG-1 26],1.01
23,BML-265,0.78
24,Cl.O=S(=O)(c1cccc2c(Cl)cccc12)N1CCCNCC1 [ML-9·HCl],0.94
25,Oc1cc(O)cc(/C=C/c2ccc(O)c(O)c2)c1 [Piceatannol],1.02
